Test results reported in PubChem BioAssay (NCI).
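Step 1: Grow cells in 96-well plates. Step 2: Expose to compound for 48 hours at 5 concentrations. Step 3: Interpolate endpoints linearly; if unreached, use highest concentration. TGI is the concentration that stops growth completely.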

Experiments:
Test in all cases: growth of human tumour cells (NCI), 48 h
UACC-257 melanoma = tested on: UACC-257 melanoma
MDA-MB-435 = tested on: MDA-MB-435
A549 NSCLC = tested on: A549 NSCLC
HCT-15 colon = tested on: HCT-15 colon
UACC-62 melanoma = tested on: UACC-62 melanoma
BT-549 breast = tested on: BT-549 breast
EKVX NSCLC = tested on: EKVX NSCLC
SF-295 CNS = tested on: SF-295 CNS
SK-OV-3 ovarian = tested on: SK-OV-3 ovarian
MDA-N = tested on: MDA-N
PC-3 prostate = tested on: PC-3 prostate
UO-31 renal = tested on: UO-31 renal
SR leukemia = tested on: SR leukemia
SF-268 CNS = tested on: SF-268 CNS
CAKI-1 renal = tested on: CAKI-1 renal
U251 CNS = tested on: U251 CNS
DU-145 prostate = tested on: DU-145 prostate
HOP-62 NSCLC = tested on: HOP-62 NSCLC
LOX IMVI melanoma = tested on: LOX IMVI melanoma
NCI/ADR-RES ovarian = tested on: NCI/ADR-RES ovarian
K-562 leukemia = tested on: K-562 leukemia
A498 renal = tested on: A498 renal
OVCAR-5 ovarian = tested on: OVCAR-5 ovarian
NCI-H23 lung = tested on: NCI-H23 lung
IGROV1 ovarian = tested on: IGROV1 ovarian
MOLT-4 leukemia = tested on: MOLT-4 leukemia
SW-620 colon = tested on: SW-620 colon
HCT-116 colon = tested on: HCT-116 colon
SNB-19 CNS = tested on: SNB-19 CNS
ACHN renal = tested on: ACHN renal
SF-539 CNS = tested on: SF-539 CNS
COLO 205 colon = tested on: COLO 205 colon
SK-MEL-5 melanoma = tested on: SK-MEL-5 melanoma
786-0 renal = tested on: 786-0 renal
NCI-H226 lung = tested on: NCI-H226 lung
RXF 393 renal = tested on: RXF 393 renal
SK-MEL-28 melanoma = tested on: SK-MEL-28 melanoma
HT29 colon = tested on: HT29 colon
M14 melanoma = tested on: M14 melanoma
OVCAR-8 ovarian = tested on: OVCAR-8 ovarian
HS 578T breast = tested on: HS 578T breast
SN12C renal = tested on: SN12C renal
KM12 colon = tested on: KM12 colon
RPMI-8226 leukemia = tested on: RPMI-8226 leukemia
NCI-H460 lung = tested on: NCI-H460 lung
NCI-H522 lung = tested on: NCI-H522 lung
HOP-92 NSCLC = tested on: HOP-92 NSCLC
SK-MEL-2 melanoma = tested on: SK-MEL-2 melanoma
MALME-3M melanoma = tested on: MALME-3M melanoma
SNB-75 CNS = tested on: SNB-75 CNS
CCRF-CEM leukemia = tested on: CCRF-CEM leukemia
MDA-MB-231 breast = tested on: MDA-MB-231 breast
HCC-2998 colon = tested on: HCC-2998 colon
MCF7 breast = tested on: MCF7 breast

Measured: TGI

Nc1ccc(-c2nc3ccc(F)cc3s2)cc1I
> 67.9 µM: RXF 393 renal
> 76.1 µM: SNB-75 CNS
> 100 µM: all other assays above
